Paper PMC12114619, “Nifuroxazide and 4-Hydroxybenzhydrazone Derivatives as New Antiparasitic (Trypanosoma cruzi and Leishmania mexicana) and Anti-Mycobacterium tuberculosis Agents” (Pharmaceutics, 2025)
Converted amounts (≈) assume the structure as drawn.

Key:
[1] = system: intracellular amastigotes of the L. donovani 9515 strain; parameters: method as in PMID 35732232; settings: read-out: IC50 against intracellular amastigotes of L. donovani 9515; cited from earlier work
[2] = system: amastigotes of the L. major IR-173 strain; parameters: method as in PMID 35732232; settings: read-out: IC50 against amastigotes of L. major IR-173; cited from earlier work
[3] = system: L. mexicana MNYC/BZ/62/M379 promastigotes; experiment: Leishmanicidal activity, L. mexicana promastigotes, M379 strain (MTT); assay type: cell-based, Leishmania mexicana; settings: 48 h
Protocol: (§1) For leishmanicidal assays, the reference strain (MNYC/BZ/62/M379) and the isolate (MHOM/MX/2017/UABJO17FCQEPS) of L. mexicana were used. Promastigotes were cultured in RPMI 1640 medium supplemented with 10% FBS, 100 U/mL penicillin-100 […] streptomycin, and glutamine (2 mM). 100 µL parasites (5 × 10^5/mL) were added in a 96-well plate, and 100 µL of appropriate concentrations (0.78 to 200 µM) of each sample dissolved in DMSO and incubated for 48 h at 26 °C. Wells containing promastigotes with DMSO 0.2% were used as a negative control, and the reference drug glucantime was included as the positive control. The 3-(4,5-Dimethylthiazol-2-yl)-2,5-diphenyltetrazolium bromide (MTT) was used to measure metabolic activity. The IC50 values were calculated with the probit statistical tool. All samples were evaluated in triplicate in three independent experiments.

[4] = system: L. mexicana MHOM/MX/2017/UABJO17FCQEPS promastigotes; experiment: Leishmanicidal activity, L. mexicana promastigotes, FCQEPS isolate (MTT); assay type: cell-based, Leishmania mexicana; settings: FCQEPS strain, 48 h
Protocol: as §1

[5] = system: J774.2 mouse macrophage cells; experiment: Cytotoxicity on macrophages (MTT); assay type: cell-based
Protocol: (§2) Cytotoxicity was assessed on J774.2 mouse macrophage cells (ATCC® TIB-67, ATCC, Manassas, VA, USA). Cells were cultured in RPMI medium supplemented with 10% SFB, 100 U µg/mL penicillin-100 mg/mL streptomycin, and glutamine (2 mM) at 37 °C and in a 5% CO2 atmosphere. A known concentration of cells (1 × 10^6/mL) was incubated with the compounds at different concentrations (0.78 to 200 µM) for 48 h at 37 °C in a CO2 atmosphere (5%). Wells containing cells treated with 0.2% DMSO were used as a negative control. MTT was employed to evaluate the metabolic activity. Next, the cell viability was calculated (%), and the cytotoxic concentration (CC50) was determined with probit analysis. All samples were evaluated in triplicate in three independent experiments.

[6] = system: T. cruzi NINOA (MHOM/MX/1994/NINOA) strain epimastigotes; experiment: Trypanocidal activity, T. cruzi epimastigotes, NINOA strain (resazurin); assay type: cell-based, Trypanosoma cruzi; settings: 48 h
[7] = system: T. cruzi strain A1 epimastigotes; experiment: Trypanocidal activity, T. cruzi epimastigotes, A1 strain (resazurin); assay type: cell-based, Trypanosoma cruzi; settings: Trypanosoma cruzi, 48 h
[8] = system: M. tuberculosis H37Rv (ATCC 27294); experiment: Anti-Mycobacterium activity, microplate Alamar Blue Assay (MABA); assay type: cell-based, Mycobacterium tuberculosis; settings: Mycobacterium tuberculosis, H37Rv strain, minimum concentration achieving 90% inhibition
Protocol: The reference strain H37Rv (ATCC 27294) of M. tuberculosis was utilized to assess anti-M. tuberculosis activity using the microplate Alamar Blue Assay (MABA), as previously reported. Samples underwent evaluation in triplicate independent experiments. Isoniazid, rifampicin, moxifloxacin, and linezolid were included as reference drugs, and the minimum drug concentration that achieved 90% inhibition was recorded as the minimum inhibitory concentration (MIC).

[9] = Cytotoxicity on macrophages (MTT); assay type: cell-based, mouse; settings: mouse, Cytotoxicity (CC50) Macrophages J774.2
Protocol: as §2

Compound: O=C(N/N=C/c1ccc([N+](=O)[O-])o1)c1ccc(OS(=O)(=O)c2cccnc2)cc1 [Compound 1l]
- IC50 [1]: 3.26 µM
- IC50 [2]: 1.26 µM

Compound: CC(C)(C)c1ccc(COc2ccc(C(=O)N/N=C/c3ccc([N+](=O)[O-])o3)cc2)cc1 [Compound 2d]
- IC50 [2]: 0.19 µM

Compound: CNC[C@H](O)[C@@H](O)[C@H](O)[C@H](O)CO.[O]=[Sb](=[O])[OH] [Glucantime, reference compound]
- IC50 [3]: 134 ± 3.1 µM
- IC50 ([3]; listed as glucantime): 134 µM
- IC50 [4]: 125 ± 1.6 µM
- IC50 ([4]; listed as glucantime): > 120 µM
- CC50 ([5]; J774.2 macrophages, 48 h, MTT): > 200 µM

Compound: O=C(N/N=C/c1ccc([N+](=O)[O-])cc1)c1ccc(O)cc1 [Nfz-18]
- IC50 [6]: 44.6 ± 6.3 µM
- IC50 ([6]; Trypanosoma cruzi): 44.5 µM
- IC50 [7]: > 100 µM
- IC50 [3]: > 200 µM
- IC50 ([3]; Leishmania mexicana): > 100 µM
- IC50 ([4]; Leishmania mexicana): 57.8 ± 2.6 µM
- MIC [8]: 186 µg/mL (≈ 653 µM)
- CC50 at 48 h [9]: 2.45 ± 2.9 µM
- Cytotoxicity (CC50) Macrophages J774.2 [5]: most toxic
